{"source": "patent EP1306084A1", "about": "“Compositions for the control of parasitic infestations in fish” (Alpharma AS, priority 1998, dated 1999)", "key": {"[1]": {"test_system": "sea lice", "experiment": "Oral or bath treatment in freshwater before sea transfer, sea lice counts after natural infestation (Example 6)", "type": "in vivo, Atlantic salmon (Salmo salar)", "description": "(§1) The treatment dosage was 9 mg hexaflumuron per kg fish per day for 10 days. This is indicated by \"Groups/Timepoints\" in the figure; • Figure 2 relates to the trial in Example 2 that was carried out on Atlantic salmon (Salmo salar). […] The treatment dosage varied between 3 - 9 mg hexaflumuron and 9- 12 mg fluazuron per kg fish per day for 7 days. This is indicated by \"Groups/Timepoints\" in the diagram. […] The treated groups are compared to an untreated control group. The treatment dosage was 4 mg hexaflumuron per kg fish per day for 5 days. This is indicated by \"Groups/Timepoints\" in the figure. Cage 2 = controls, Cage 4-6 = treated groups, 16.6.97 = time point for sea transfer and 5.8.97= controls treated by bathing with deltamethrin; • Figure 4 relates to the trial described in Example 5, which was carried out on sea trout (Salmo trutta). […] The treated groups are compared with an untreated control group. The dosage for oral treatment was 4 mg hexaflumuron per kilo fish per day for 5 days, and 5 ppm hexaflumuron as a 30 minute bath treatment. This is indicated by \"Groups/Timepoints\" in the figure. Cage 1.4 = Controls, cage 1.3 = Oral treatment, cage 1.2 = Bath treatment. […] The treated groups are compared with an untreated control group, and one group that has been treated orally with teflubenzuron (10 mg/kg of teflubenzuron per kg fish per day for 7 days). The dosage for oral treatment was 5.6 mg hexaflumuron per kg fish per day for 7 days, and 5 ppm hexaflumuron as a 30 minute bath treatment. […] End of treatment: 22.10.97, Sea transfer: 23.10.97. T1 = 3 weeks post end of treatment, T2 = 5 weeks post end of treatment, T3 = 9 weeks post end of treatment, T4 = 12 weeks post end of treatment; • Figure 6 relates to the trial in Example 6 at time points 4-6, with the same trial parameters as for Figure 5. T5 = 15 weeks post end of treatment, T6 = 17 weeks post end of treatment. Cage 3 and 4 were treated by bath with deltamethrin after sea lice counting at T4 (12.01.98); • Figure 7 relates to the trial described in Example 7 where salmon were injected on 17.12.97 with two formulations (groups L and R, respectively) of hexaflumuron and a vaccine formulation without hexaflumuron (control). […] The vaccinated fish was transferred to sea water on 09.01.98; • Figure 8 summarises the trial of Example 8 where salmon smolts were injected with 9 different active substances on 08.07.98. Only results for Moxidectin (Mox.), Lufenuron (Luf.) and hexaflumuron in Apoject 1-Fural (Hex.Apo) and in animal oil (Hex.oil) are shown, and • Figure 9 summarises the trial described in Example 10 where salmon were injected on 03.12.97 with 3 different formulations of hexaflumuron (Hexa 1, Hexa 2 and Hexa 3). The fish were transferred to sea water at T0.\nAbout 400 Atlantic salmon (Salmo salar) of an average weight of 80 grams were divided into four groups of 100 fish in each. One group was given an oral treatment of 5.6 mg hexaflumuron per kg fish each day for 7 days before sea transfer. Group two was given a bath treatment with a dosage of 5 ppm (mg/l) hexaflumuron for 30 minutes with a formulation containing 10% hexaflumuron. Group three was given oral treatment with a daily dosage of 10 mg teflubenzuron per kg fish for 7 days, while the last group remained untreated. […] Every third week, lice from 10 fish in each cage were counted to assess if there was a difference in the number of lice between the cages. […]"}, "[2]": {"test_system": "sea lice", "experiment": "Oral or bath treatment in freshwater before sea transfer, sea lice counts after natural infection (Example 5)", "type": "in vivo, sea trout (Salmo trutta)", "settings": "bath treatment 2, 5 and 8 weeks after sea transfer", "description": "(§2) The treatment dosage was 9 mg hexaflumuron per kg fish per day for 10 days. This is indicated by \"Groups/Timepoints\" in the figure; • Figure 2 relates to the trial in Example 2 that was carried out on Atlantic salmon (Salmo salar). […] The treatment dosage varied between 3 - 9 mg hexaflumuron and 9- 12 mg fluazuron per kg fish per day for 7 days. This is indicated by \"Groups/Timepoints\" in the diagram. […] The treated groups are compared to an untreated control group. The treatment dosage was 4 mg hexaflumuron per kg fish per day for 5 days. This is indicated by \"Groups/Timepoints\" in the figure. Cage 2 = controls, Cage 4-6 = treated groups, 16.6.97 = time point for sea transfer and 5.8.97= controls treated by bathing with deltamethrin; • Figure 4 relates to the trial described in Example 5, which was carried out on sea trout (Salmo trutta). […] The treated groups are compared with an untreated control group. The dosage for oral treatment was 4 mg hexaflumuron per kilo fish per day for 5 days, and 5 ppm hexaflumuron as a 30 minute bath treatment. This is indicated by \"Groups/Timepoints\" in the figure. Cage 1.4 = Controls, cage 1.3 = Oral treatment, cage 1.2 = Bath treatment. […] The treated groups are compared with an untreated control group, and one group that has been treated orally with teflubenzuron (10 mg/kg of teflubenzuron per kg fish per day for 7 days). The dosage for oral treatment was 5.6 mg hexaflumuron per kg fish per day for 7 days, and 5 ppm hexaflumuron as a 30 minute bath treatment. […] End of treatment: 22.10.97, Sea transfer: 23.10.97. T1 = 3 weeks post end of treatment, T2 = 5 weeks post end of treatment, T3 = 9 weeks post end of treatment, T4 = 12 weeks post end of treatment; • Figure 6 relates to the trial in Example 6 at time points 4-6, with the same trial parameters as for Figure 5. […]\nAbout 300 sea trout (Salmo trutta) of an average weight of 160 grams were divided into three groups of 100 fish each. […] Lice from 6-10 fish from each cage were counted every third week to assess whether there was any difference in the number of lice between the cages. […]"}, "[3]": {"test_system": "sea lice", "experiment": "Oral treatment in freshwater before sea transfer, sea lice counts after natural infection (Example 4)", "type": "in vivo, salmon (Salmo salar)", "settings": "bath treatment, 7 weeks into the trial", "description": "as §2, with “23.10.97.” for “23.10.97. T1 = 3 weeks post end of treatment, T2 = 5 weeks post end of treatment, T3 = 9 weeks post end of treatment, T4 = 12 weeks post end of treatment; • Figure 6 relates to the trial in Example 6 at time points 4-6, with the same trial parameters as for Figure 5.”\nAbout 2,500 salmon (Salmo salar) of average weight 42 grams were treated orally with a daily dosage of 4 mg hexaflumuron per kilo fish for 5 days. […] The number of lice on 10 fish from each cage were counted every third week to check if there was any difference in the number of lice in the cages. […]"}, "[4]": {"test_system": "sea lice", "experiment": "Oral treatment (coated feed / Akvaletter) of naturally sea lice infected salmon in minicages (Example 2)", "type": "in vivo, Atlantic salmon (Salmo salar)", "settings": "fluazuron groups, 9.0-12.0 mg per day, 7 days", "description": "as §1, with “T0. […]” for “T0.”"}, "[5]": {"test_system": "sea lice", "experiment": "Injection of 9 active substances, protective effect against sea lice (Example 8)", "type": "in vivo, salmon smolt", "description": "as §1\nIn this trial 9 different active substances were tested for protective effect against sea lice. 1,200 salmon smolt were, prior the start of the trial, vaccinated with a commercial vaccine, ALPHA JECT 5100.\nOne week after sea water transfer the salmon was divided into 12 groups and injected with different formulations of the 9 different active substances. In parallel with the 12 groups, a 13th group comprising 50 fish of the same origin and size was injected with a saline (PBS) solution without active substance. This group served as negative control/reference group in respect of sea lice infestations. The groups were marked by fin cutting and distributed randomly into 3 cages.\nThe active substances that were used as injection were hexaflumuron, buprofezin, diflubenzuron, fluazuron, lufenuron, ivermectin, doramectin, moxidectin and milbemycin oxime, respectively. All the fish were injected with 0.2 ml of the various injection formulations. Hexaflumuron, buprofezin, fluazuron, lufenuron and diflubenzuron were administered at a dosage of about 50 mg/kg whereas ivermectin, doramectin and moxidectin were administered at a dosage of 0.2 mg/kg (recommended dosage for mammals). […]"}}}
{"smiles": "O=C(NC(=O)c1c(F)cccc1F)Nc1cc(Cl)c(F)c(Cl)c1F", "note": "[teflubenzuron]", "values": [{"measurement": "number of lice compared with untreated control group", "setting": "[1]; oral 10 mg teflubenzuron per kg fish daily for 7 days, at each assessment", "value": "same number of lice as the untreated control group"}, {"measurement": "protection against new establishments by sea lice", "setting": "[1]; summary statement referring to Example 6", "value": "do not protect"}]}
{"smiles": "CC1(C)[C@H](C(=O)O[C@H](C#N)c2cccc(Oc3ccccc3)c2)[C@@H]1C=C(Br)Br", "note": "[deltamethrin, reference compound]", "values": [{"measurement": "bath treatment of control and teflubenzuron groups, number of lice", "setting": "[1]; bath treatment after T4", "value": "successful"}, {"measurement": "bath treatment of control fish, number of lice", "setting": "[2]", "value": "successful"}, {"measurement": "bath treatment of control fish to reduce the number of pre-adult lice", "setting": "[3]", "value": "successful"}]}
{"smiles": "O=C(NC(=O)c1c(F)cccc1F)Nc1ccc(Cl)c(Oc2ncc(C(F)(F)F)cc2Cl)c1", "note": "[fluazuron, reference compound]", "values": [{"measurement": "reduction as compared to the control group", "setting": "[4]", "value": 25, "unit": "%"}]}
{"smiles": "O=C(NC(=O)c1c(F)cccc1F)Nc1cc(Cl)c(OC(F)(F)C(F)C(F)(F)F)cc1Cl", "note": "(centres unmarked) [lufenuron, reference compound]", "values": [{"measurement": "protection against sea lice", "setting": "[5]; T2, 40 days after injection, hexaflumuron, lufenuron about 50 mg/kg, moxidectin 0.2 mg/kg", "value": "showed protection"}, {"measurement": "lice on average", "setting": "[5]; T3, 70 days after injection, formulated in Apoject 1-Fural, about 50 mg/kg, control group 5.6", "value": 0.6}, {"measurement": "good protection against lice until T5, time after injection", "setting": "[5]; lufenuron in Apoject 1-Fural, about 50 mg/kg", "value": 128, "unit": "days"}, {"measurement": "protection following injection", "setting": "[5]; other active substances, summary of trial", "value": "good protection for an extended period of time"}]}
{"smiles": "O=C(NC(=O)c1c(F)cccc1F)Nc1ccc(Cl)cc1", "note": "[diflubenzuron, reference compound]", "values": [{"measurement": "protection against new establishments by sea lice", "setting": "[5]; summary statement referring to Example 8", "value": "do not protect"}]}
